Reference: ChEMBL document CHEMBL6182852, “Discovery of ATP competitive PDHK1/2 dual inhibitors” (Bioorg Med Chem Lett, 2025)
pIC50: −log10 of the molar value.

What was measured:
[1] = Cytotoxicity against human PBMC cells
[2] = Inhibition of LPS-induced TNF release in human PBMC cells; type: functional, cell-based
[3] = molecular target: [Pyruvate dehydrogenase (acetyl-transferring)] kinase isozyme 2, mitochondrial (Homo sapiens, UniProt Q15119); assay: Inhibition of PDHK2 (unknown origin)
[4] = Inhibition of E1 PDHK (unknown origin) phosphorylation at S232 residues; set-up: species or system Homo sapiens
[5] = molecular target: [Pyruvate dehydrogenase (acetyl-transferring)] kinase isozyme 1, mitochondrial (Homo sapiens, UniProt Q15118); assay: Inhibition of PDHK1 (unknown origin) in presence of 0.5 uM ATP
Chain of [Pyruvate dehydrogenase (acetyl-transferring)] kinase isozyme 1, mitochondrial (Q15118 whole entry): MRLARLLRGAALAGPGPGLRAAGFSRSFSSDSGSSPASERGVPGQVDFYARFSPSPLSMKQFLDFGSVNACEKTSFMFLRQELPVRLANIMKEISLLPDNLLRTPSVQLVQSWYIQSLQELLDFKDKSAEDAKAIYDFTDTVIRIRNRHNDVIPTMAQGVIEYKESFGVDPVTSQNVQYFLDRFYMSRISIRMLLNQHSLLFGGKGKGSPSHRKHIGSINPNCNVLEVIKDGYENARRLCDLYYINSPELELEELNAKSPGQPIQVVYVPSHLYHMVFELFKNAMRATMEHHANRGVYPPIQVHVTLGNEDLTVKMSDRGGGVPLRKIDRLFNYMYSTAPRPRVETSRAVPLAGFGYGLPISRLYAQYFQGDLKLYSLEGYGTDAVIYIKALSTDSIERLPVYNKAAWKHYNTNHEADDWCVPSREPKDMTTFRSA

| SMILES | CC50 [1] | pIC50 [2] | pIC50 [3] | pIC50 [4] | pIC50 [5] |
| --- | --- | --- | --- | --- | --- |
| CCNc1cc(F)cc2c1[nH]c(=O)n2-c1c(C)cc(Oc2cccc(C(=O)O)c2)cc1Cl | > 100 µM | 4.15 | 7.47 | < 4.00 |  |
| CSc1cc(-c2nccs2)n[nH]1 |  |  |  |  | < 4.00 |
| CCNc1cc(F)cc2c1[nH]c(=O)n2-c1ccc(Oc2cccc(S(=O)(=O)F)c2)cc1 | > 100 µM | 4.61 | 6.92 | 5.28 |  |
| CCNc1cc(F)cc2c1NC(=O)C2(C)N1CCC[C@@H](Nc2ccc(C(=O)O)c(Cl)c2)C1 (stereo partly drawn) | > 100 µM | < 4.00 |  |  |  |
| CCNc1cc(F)cc2c1NC(=O)C2(CC)N1CCC[C@@H](NC(=O)C2CC3(C2)CN(C#N)C3)C1 (mixture of isomers) | > 100 µM | 6.05 | 7.82 |  |  |
| CCNc1cc(F)cc2c1NC(=O)C2(C)N1CCC[C@@H](Nc2ccc(C#N)nc2)C1 (mixture of isomers) | 56.9 µM | 5.35 |  |  |  |
| CCNc1cc(F)cc2c1NC(=O)C2(C)N1CCCCC1 (racemic) | > 100 µM | 4.31 |  |  |  |
